Experimental data reported in publication PMC8391922, “The Combined Effect of Branching and Elongation on the Bioactivity Profile of Phytocannabinoids. Part I: Thermo-TRPs” (Biomedicines, 2021).
Several values for one entry are separate records, joined by “and”; a condition that tells them apart may be missing. Equal values may be shown once. Read-outs that look alike come from different tables or passages of the source.

Tests used:
rat TRPV4 [1] = target: T1, rat TRPV4 (Rattus norvegicus, UniProt Q9ERZ8); design: method as in PMID 21175579, PMID 21726418; conditions: cited from earlier work; for TRPV4 Efficacy (% IM 4 μM): percentage of the response to ionomycin 4 μM; for EC50: read-out: TRPV4 Potency EC50, half-maximal increase in [Ca2+]i
T1 construct: expressed in transfected cells; host or cells: HEK-293
T1 sequence (Q9ERZ8 whole entry): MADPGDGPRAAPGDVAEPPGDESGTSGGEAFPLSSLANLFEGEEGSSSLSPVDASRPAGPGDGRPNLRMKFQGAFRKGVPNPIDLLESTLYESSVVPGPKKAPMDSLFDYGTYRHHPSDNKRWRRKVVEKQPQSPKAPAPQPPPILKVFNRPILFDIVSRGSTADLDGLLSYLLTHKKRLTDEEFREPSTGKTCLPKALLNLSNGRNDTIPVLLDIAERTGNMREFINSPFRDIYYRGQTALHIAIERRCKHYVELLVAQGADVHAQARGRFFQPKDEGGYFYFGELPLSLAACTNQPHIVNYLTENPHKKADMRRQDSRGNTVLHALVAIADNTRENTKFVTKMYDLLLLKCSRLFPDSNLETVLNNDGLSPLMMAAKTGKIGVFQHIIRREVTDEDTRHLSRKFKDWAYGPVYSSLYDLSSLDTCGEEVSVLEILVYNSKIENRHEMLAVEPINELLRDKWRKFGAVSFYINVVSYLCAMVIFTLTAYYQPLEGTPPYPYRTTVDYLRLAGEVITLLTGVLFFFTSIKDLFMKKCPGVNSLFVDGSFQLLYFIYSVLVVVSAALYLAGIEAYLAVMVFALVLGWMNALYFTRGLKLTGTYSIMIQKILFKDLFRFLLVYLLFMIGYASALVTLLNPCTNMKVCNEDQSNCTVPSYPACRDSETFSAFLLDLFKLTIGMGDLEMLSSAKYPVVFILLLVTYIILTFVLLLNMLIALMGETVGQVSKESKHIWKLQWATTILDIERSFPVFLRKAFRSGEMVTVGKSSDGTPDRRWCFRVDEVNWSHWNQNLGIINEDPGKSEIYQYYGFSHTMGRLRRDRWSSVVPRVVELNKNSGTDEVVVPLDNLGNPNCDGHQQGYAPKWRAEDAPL

human TRPV1 [2] = target: T2, human TRPV1 (Homo sapiens, UniProt Q8NER1); design: method as in PMID 21175579; conditions: cited from earlier work; for TRPV1 Efficacy (% IM 4 μM): percentage of the response to ionomycin 4 μM
T2 construct: expressed in transfected cells; host or cells: HEK-293
T2 sequence (Q8NER1 whole entry): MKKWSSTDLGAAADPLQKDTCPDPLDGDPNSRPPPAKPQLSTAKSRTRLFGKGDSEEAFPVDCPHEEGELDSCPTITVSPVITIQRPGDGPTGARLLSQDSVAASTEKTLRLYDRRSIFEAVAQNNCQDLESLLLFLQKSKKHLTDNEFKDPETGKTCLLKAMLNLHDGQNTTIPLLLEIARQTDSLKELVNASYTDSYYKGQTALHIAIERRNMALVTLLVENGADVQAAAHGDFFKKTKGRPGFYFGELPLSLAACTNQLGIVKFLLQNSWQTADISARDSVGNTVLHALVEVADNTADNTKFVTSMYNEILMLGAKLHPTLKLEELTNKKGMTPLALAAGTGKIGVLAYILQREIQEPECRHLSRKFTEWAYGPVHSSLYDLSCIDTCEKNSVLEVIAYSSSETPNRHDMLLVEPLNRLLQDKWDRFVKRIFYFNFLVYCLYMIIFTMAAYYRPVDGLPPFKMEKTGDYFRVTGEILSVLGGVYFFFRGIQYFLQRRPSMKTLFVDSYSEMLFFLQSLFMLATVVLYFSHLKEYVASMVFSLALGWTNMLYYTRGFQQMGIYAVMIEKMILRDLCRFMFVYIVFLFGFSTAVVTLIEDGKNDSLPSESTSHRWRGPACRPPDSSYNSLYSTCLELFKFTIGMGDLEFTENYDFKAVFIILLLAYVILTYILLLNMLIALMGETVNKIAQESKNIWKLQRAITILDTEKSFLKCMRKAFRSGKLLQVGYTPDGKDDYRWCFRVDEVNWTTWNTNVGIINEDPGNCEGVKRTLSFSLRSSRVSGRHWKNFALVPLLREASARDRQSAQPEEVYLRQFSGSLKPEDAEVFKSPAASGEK

rat TRPV3 = target: T3, rat TRPV3 (Rattus norvegicus, UniProt Q4QYD9); design: method as in PMID 21175579, PMID 21726418; conditions: cited from earlier work; for TRPV3 Efficacy (% IM 4 μM): percentage of the response to ionomycin 4 μM; for EC50: read-out: TRPV3 Potency EC50, half-maximal increase in [Ca2+]i
T3 construct: expressed in transfected cells; host or cells: HEK-293
T3 sequence (Q4QYD9 1-791): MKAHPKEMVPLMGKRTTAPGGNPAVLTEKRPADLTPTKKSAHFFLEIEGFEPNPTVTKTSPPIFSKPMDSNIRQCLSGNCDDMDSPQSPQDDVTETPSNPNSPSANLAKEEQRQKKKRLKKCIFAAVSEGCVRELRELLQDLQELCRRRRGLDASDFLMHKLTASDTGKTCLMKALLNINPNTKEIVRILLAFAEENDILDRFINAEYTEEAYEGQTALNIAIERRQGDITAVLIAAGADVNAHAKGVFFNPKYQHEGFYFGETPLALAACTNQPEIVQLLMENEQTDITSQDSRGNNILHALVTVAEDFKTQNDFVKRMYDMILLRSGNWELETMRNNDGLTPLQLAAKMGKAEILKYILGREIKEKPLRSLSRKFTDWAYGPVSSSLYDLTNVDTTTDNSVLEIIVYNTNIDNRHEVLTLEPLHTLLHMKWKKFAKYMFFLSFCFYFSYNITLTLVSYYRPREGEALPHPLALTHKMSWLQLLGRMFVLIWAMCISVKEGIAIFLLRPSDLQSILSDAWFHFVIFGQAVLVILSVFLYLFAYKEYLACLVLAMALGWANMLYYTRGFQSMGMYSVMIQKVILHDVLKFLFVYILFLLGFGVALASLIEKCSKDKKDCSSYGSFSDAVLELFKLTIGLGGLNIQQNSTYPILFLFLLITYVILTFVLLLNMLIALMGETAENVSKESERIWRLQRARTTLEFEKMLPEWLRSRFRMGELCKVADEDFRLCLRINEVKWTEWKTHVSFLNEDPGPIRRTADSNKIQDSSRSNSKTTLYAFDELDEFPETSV

rat TRPA1 [3] = target: T4, rat TRPA1 (Rattus norvegicus, UniProt Q6RI86); design: method as in PMID 21175579; conditions: cited from earlier work; for TRPA1 Efficacy (%ITC 100 μM): percentage of the effect of 100 μM allylisothiocyanate
T4 construct: expressed in transfected cells; host or cells: HEK-293
T4 sequence (Q6RI86 whole entry): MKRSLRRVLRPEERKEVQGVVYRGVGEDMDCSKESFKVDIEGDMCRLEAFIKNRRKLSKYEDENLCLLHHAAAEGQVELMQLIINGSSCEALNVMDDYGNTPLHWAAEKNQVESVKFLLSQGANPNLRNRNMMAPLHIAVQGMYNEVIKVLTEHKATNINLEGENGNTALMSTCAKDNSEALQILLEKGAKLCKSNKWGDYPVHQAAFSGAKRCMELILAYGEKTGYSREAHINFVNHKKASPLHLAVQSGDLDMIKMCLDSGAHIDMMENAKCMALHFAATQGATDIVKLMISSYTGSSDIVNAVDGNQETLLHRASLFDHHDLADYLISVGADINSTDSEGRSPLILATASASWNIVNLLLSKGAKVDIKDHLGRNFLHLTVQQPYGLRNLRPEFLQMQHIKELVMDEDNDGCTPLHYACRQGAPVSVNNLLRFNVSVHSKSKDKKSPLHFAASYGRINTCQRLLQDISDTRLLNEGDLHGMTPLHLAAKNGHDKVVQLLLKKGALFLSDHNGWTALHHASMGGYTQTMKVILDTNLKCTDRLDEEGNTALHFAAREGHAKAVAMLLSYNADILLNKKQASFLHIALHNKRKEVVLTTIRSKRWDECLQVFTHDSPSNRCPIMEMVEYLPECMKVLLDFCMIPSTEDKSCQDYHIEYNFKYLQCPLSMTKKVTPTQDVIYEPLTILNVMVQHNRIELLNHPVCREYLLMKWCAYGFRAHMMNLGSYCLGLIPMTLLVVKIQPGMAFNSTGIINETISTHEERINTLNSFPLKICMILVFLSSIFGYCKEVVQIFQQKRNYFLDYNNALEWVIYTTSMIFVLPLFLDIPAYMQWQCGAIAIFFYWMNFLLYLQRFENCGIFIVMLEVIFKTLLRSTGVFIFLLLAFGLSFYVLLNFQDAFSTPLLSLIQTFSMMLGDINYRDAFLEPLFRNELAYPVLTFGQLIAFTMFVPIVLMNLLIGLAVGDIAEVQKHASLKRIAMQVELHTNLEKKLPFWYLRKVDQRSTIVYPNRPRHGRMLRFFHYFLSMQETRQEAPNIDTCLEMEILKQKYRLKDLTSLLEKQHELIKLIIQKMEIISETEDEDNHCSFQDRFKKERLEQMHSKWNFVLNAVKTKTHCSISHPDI

rat TRPV2 [4] = target: T5, rat TRPV2 (Rattus norvegicus, UniProt Q9WUD2); design: method as in PMID 21175579, PMID 21726418; conditions: cited from earlier work; for TRPV2 Efficacy (% IM 4 μM): percentage of the response to ionomycin 4 μM; for IC50: read-out: IC50 TRPV2
T5 construct: expressed in transfected cells; host or cells: HEK-293
T5 sequence (Q9WUD2 1-761): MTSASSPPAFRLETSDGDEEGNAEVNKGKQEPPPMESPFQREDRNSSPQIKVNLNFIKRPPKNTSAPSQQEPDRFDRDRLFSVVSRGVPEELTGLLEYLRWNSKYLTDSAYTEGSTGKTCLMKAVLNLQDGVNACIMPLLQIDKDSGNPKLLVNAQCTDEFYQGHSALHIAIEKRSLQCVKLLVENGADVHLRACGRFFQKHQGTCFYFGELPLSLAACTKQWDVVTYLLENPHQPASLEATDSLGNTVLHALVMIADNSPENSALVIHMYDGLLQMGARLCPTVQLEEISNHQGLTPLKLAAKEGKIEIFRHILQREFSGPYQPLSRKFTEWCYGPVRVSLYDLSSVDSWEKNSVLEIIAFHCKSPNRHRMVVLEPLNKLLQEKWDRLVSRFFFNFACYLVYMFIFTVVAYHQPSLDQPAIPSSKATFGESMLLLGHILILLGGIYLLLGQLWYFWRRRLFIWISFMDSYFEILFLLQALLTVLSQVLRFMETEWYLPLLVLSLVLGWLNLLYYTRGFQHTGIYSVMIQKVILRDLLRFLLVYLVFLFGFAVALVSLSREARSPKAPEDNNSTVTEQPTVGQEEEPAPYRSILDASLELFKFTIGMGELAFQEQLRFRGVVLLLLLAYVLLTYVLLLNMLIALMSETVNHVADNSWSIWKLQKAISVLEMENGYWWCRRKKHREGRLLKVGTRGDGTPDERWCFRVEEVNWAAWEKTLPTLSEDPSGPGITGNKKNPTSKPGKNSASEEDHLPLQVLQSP

rat TRPM8 [5] = target: T6, rat TRPM8 (Rattus norvegicus, UniProt Q8R455); design: method as in PMID 21175579; conditions: read-out: IC50 TRPM8; against agonist icilin 0.25 μM; cited from earlier work
T6 construct: expressed in transfected cells; host or cells: HEK-293
T6 sequence (Q8R455 whole entry): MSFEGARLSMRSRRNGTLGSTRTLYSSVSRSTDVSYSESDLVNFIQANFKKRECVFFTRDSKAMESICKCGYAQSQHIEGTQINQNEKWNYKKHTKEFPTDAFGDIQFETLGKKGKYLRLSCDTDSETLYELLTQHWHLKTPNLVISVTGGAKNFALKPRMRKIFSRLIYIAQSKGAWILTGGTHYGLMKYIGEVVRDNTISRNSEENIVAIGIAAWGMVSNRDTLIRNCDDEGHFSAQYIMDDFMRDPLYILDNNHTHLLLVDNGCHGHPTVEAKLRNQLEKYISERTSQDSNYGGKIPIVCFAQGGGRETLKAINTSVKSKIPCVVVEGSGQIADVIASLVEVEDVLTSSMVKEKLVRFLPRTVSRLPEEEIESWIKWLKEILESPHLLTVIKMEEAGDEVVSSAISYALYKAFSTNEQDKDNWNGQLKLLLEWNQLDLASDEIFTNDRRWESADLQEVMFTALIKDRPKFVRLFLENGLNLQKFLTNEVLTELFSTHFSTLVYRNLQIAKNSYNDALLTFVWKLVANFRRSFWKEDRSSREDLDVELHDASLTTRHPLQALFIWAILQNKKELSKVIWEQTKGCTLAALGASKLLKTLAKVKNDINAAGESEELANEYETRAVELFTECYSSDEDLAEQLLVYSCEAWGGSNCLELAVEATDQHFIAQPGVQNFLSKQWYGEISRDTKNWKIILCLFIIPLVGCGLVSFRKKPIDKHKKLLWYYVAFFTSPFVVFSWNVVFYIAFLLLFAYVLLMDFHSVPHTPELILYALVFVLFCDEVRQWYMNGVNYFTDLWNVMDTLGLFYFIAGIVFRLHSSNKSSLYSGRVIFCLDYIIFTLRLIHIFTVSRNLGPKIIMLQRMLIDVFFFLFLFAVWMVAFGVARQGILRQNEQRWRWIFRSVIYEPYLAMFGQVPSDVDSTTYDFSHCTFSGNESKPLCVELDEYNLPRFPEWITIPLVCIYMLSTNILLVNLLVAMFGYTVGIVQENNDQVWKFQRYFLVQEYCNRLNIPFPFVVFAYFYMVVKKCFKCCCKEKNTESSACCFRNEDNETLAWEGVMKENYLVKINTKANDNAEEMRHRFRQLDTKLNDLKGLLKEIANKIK

rat TRPA1 [6] = target: T4, rat TRPA1; assay: TRPA1-mediated elevation of intracellular Ca2+ (Fluo-4) in transfected HEK-293 cells; type: cell-based
Protocol: (§1) Assays of rat TRPA1, TRPV2, TRPV3, TRPV4, and TRPM8 or human TRPV1 mediated elevation of intracellular Ca ^2+ in transfected HEK-293 cells were performed with a continuous monitoring of [Ca ^2+]i during the experiments. […] Cell fluorescence before and after the addition of various concentrations of test compounds was measured, normalizing the effects against the response to ionomycin (IM, 4 μM). The values of the effect on [Ca^2+]i in HEK-293 cells not transfected were used as baseline and subtracted from the values obtained from transfected cells. For TRPA1, agonist efficacy was expressed as a percentage of the effect on [Ca ^2+]i observed with 100 μM allylisothiocyanate. […] In the TRPV3 assay, TRPV3-expressing HEK293 cells were first sensitized with the structurally unrelated agonist 2-aminoethoxydiphenyl borate (100 μM). Antagonist/desensitizing behavior is evaluated against the agonist of the TRP analyzed by adding the compounds directly in the quartz cuvette 5 min before stimulation of cells with the agonist. […] Dose-response curve fitting (sigmoidal dose-response variable slope) and parameter estimation were performed with Graph-Pad Prism8 (GraphPad Software Inc., San Diego, CA, USA). All determinations were performed at least in triplicate.

rat TRPV4 [7] = target: T1, rat TRPV4; assay: TRPV4-mediated elevation of intracellular Ca2+ (Fluo-4) in transfected HEK-293 cells; type: cell-based
Protocol: as §1

rat TRPM8 [8] = target: T6, rat TRPM8; assay: TRPM8 antagonism of icilin-induced intracellular Ca2+ elevation (Fluo-4) in transfected HEK-293 cells; type: cell-based; conditions: IC50 TRPM8, antagonist; compound added 5 min before agonist icilin 0.25 μM
Protocol: as §1

rat TRPV2 [9] = target: T5, rat TRPV2; assay: TRPV2-mediated elevation of intracellular Ca2+ (Fluo-4) in transfected HEK-293 cells; type: cell-based
Protocol: as §1

human TRPV1 [10] = target: T2, human TRPV1; assay: TRPV1-mediated elevation of intracellular Ca2+ (Fluo-4) in transfected HEK-293 cells; type: cell-based
Protocol: as §1

[11] = percentage of the response to ionomycin 4 μM, HEK-293

C=C(C)[C@@H]1CCC(C)=C[C@H]1c1c(O)cc(CCCCC)cc1O [1a, cannabidiol]
TRPV4 Efficacy (% IM 4 μM) (rat TRPV4 [1]): 16.7 ± 1.0%
IC50 (rat TRPV4 [1]; read-out: IC50 TRPV4, against agonist 4αPDD 1 μM): 1.1 µM
EC50 (rat TRPV4 [1]): 0.8 µM
IC50 TRPV1 (human TRPV1 [2]; against agonist capsaicin 0.1 μM): sub/low micromolar range
TRPV1 Efficacy (% IM 4 μM) (human TRPV1 [2]): 44.7 ± 0.02%
IC50 (human TRPV1 [2]; read-out: IC50 TRPV1, against agonist capsaicin 0.1 μM): 0.6 µM
TRPV3 Efficacy (% IM 4 μM) (rat TRPV3): 50.1 ± 4.8%
IC50 (rat TRPV3; read-out: IC50 TRPV3, against agonist carvacrol 1 mM): 0.9 µM
EC50 (rat TRPV3): 3.7 µM
TRPA1 Efficacy (%ITC 100 μM) (rat TRPA1 [3]): 115.9 ± 4.6%
IC50 (rat TRPA1 [3]; read-out: IC50 TRPA1, against agonist AITC 100 μM): 0.16 µM
TRPV2 Efficacy (% IM 4 μM) (rat TRPV2 [4]): 40.5 ± 1.6%
IC50 (rat TRPV2 [4]; against agonist LPC 3 μM): 4.5 µM

CCCCCc1cc(O)c2c(c1)OC(C)(C)[C@@H]1CC=C(C)C[C@@H]21 [6a, Δ^8-tetrahydrocannabinol]
TRPV4 Efficacy (% IM 4 μM) (rat TRPV4 [1]): <10 <10% and 15.3 ± 1.5%
EC50 (rat TRPV4 [1]): 16.1 ± 4.5 µM
TRPV1 Efficacy (% IM 4 μM) (human TRPV1 [2]): < 10%
TRPV3 Efficacy (% IM 4 μM) (rat TRPV3): 18.2 ± 1.0% and 13.1 ± 2.4%
EC50 (rat TRPV3): 9.5 µM and 5.3 µM
TRPA1 Efficacy (%ITC 100 μM) (rat TRPA1 [3]): 117.0 ± 12.0%
EC50 (rat TRPA1 [3]; read-out: TRPA1 Potency EC50, half-maximal increase in [Ca2+]i): 0.23 µM
IC50 (rat TRPM8 [5]): 0.16 µM
TRPV2 Efficacy (% IM 4 μM) (rat TRPV2 [4]): 53.0 ± 1.4% and 39.9 ± 2.1%
IC50 (rat TRPV2 [4]; against agonist CBD 2 μM): 0.8 µM

CCCCCCC(C)(C)c1cc(O)c2c(c1)OC(C)(C)[C@@H]1CC=C(C)C[C@@H]21 [6b, Depentyl-α,α-dimethylheptyl-Δ^8-tetrahydrocannabinol]
EC50 (rat TRPA1 [6]): 4.8 ± 1.1 µM
IC50 (rat TRPA1 [6]): 6 ± 0.9 µM
TRPA1 Efficacy (%ITC 100 μM) (rat TRPA1 [6]; percentage of the effect of 100 μM allylisothiocyanate on [Ca2+]i, HEK-293): 124.2 ± 4.0%
EC50 (rat TRPV4 [7]): 16.1 ± 21.6 µM
IC50 (rat TRPV4 [7]): > 100 µM
TRPV4 Efficacy (% IM 4 μM) (rat TRPV4 [7]; [11]): <10 <10% and 12.1 ± 0.2%
IC50 (rat TRPM8 [8]): 39.9 ± 6.9 µM
EC50 (rat TRPV2 [9]): 0.25 ± 0.03 µM
IC50 (rat TRPV2 [9]; IC50 TRPV2, antagonist/desensitizing, compound added 5 min before agonist CBD 2 μM): 45.8 µM and > 50 µM
TRPV2 Efficacy (% IM 4 μM) (rat TRPV2 [9]; [11]): < 10% and 10.5 ± 0.02%
EC50 (human TRPV1 [10]): > 100 µM
IC50 (human TRPV1 [10]): > 100 µM
TRPV1 Efficacy (% IM 4 μM) (human TRPV1 [10]; [11]): 15.3%
